Experimental data published in US11547697B2, “Heterocyclic compounds and uses thereof” (MILLENNIUM PHARMACEUTICALS, INC., priority 2009, dated 2023).
Like-named read-outs stand apart in the source and are kept apart here.

Experiments:
Type in all cases: biochemical
p110β/p85α = p110β/p85α (Homo sapiens (Human), UniProt P42338); assay: PI 3-Kinase (human) HTRF assay, p110β/p85α
p110γ = p110γ (Homo sapiens (Human), UniProt P48736); assay: PI 3-Kinase (human) HTRF assay, p110γ
p110δ/p85α = p110δ/p85α (Homo sapiens (Human), UniProt O00329); assay: PI 3-Kinase (human) HTRF assay, p110δ/p85α
Chain of p110δ/p85α (O00329 whole entry): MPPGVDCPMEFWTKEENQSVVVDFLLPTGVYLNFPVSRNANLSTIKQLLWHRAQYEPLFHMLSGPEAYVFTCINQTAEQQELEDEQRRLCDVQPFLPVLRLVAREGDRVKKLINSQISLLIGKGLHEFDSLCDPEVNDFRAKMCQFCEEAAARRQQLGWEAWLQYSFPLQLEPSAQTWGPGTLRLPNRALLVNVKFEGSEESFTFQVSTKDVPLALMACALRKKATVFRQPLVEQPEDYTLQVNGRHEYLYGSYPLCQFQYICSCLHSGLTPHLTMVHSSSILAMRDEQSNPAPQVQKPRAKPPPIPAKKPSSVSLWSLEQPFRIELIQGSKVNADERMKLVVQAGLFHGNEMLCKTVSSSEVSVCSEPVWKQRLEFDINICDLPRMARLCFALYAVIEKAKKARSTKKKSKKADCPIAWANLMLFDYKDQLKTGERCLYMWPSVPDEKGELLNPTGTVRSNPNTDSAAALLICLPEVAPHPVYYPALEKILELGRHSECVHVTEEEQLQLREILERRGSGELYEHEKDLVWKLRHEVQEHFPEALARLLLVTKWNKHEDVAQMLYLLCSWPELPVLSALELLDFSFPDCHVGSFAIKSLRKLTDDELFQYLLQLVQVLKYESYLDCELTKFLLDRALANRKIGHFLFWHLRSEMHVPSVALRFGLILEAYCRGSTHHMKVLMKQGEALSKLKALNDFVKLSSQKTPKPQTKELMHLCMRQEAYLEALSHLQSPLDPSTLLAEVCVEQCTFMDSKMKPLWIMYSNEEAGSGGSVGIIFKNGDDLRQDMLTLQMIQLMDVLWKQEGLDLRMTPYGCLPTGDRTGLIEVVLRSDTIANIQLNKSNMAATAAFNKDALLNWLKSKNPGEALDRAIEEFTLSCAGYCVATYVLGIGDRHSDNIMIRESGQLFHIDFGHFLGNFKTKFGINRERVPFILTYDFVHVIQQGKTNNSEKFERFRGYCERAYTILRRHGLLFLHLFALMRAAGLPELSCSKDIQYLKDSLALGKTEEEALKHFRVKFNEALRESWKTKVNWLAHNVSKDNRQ
Chain of p110δ/p85α (P27986 whole entry partner): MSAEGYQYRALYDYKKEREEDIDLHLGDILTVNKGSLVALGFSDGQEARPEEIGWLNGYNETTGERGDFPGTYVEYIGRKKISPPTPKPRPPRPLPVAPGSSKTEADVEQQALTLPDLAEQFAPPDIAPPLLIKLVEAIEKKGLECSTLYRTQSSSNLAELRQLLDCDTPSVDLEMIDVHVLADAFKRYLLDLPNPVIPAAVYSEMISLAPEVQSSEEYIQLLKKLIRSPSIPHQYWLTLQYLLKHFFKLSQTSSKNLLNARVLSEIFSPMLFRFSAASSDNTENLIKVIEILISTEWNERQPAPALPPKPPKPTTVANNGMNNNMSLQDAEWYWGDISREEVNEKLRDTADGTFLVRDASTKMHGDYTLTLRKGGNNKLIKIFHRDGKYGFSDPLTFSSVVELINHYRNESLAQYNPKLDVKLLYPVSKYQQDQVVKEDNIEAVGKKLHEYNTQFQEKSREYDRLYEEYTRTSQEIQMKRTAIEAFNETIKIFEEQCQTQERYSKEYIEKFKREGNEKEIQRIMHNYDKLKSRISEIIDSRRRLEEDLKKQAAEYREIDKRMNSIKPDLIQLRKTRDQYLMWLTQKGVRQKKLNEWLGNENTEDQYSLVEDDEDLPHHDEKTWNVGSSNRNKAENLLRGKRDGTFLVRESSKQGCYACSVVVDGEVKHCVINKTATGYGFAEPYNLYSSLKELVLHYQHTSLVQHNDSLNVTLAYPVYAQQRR

p110α/p85α = p110α/p85α (Homo sapiens (Human), UniProt P42336); assay: PI 3-Kinase (human) HTRF assay, p110α/p85α
Chain of p110α/p85α (P42336 whole entry): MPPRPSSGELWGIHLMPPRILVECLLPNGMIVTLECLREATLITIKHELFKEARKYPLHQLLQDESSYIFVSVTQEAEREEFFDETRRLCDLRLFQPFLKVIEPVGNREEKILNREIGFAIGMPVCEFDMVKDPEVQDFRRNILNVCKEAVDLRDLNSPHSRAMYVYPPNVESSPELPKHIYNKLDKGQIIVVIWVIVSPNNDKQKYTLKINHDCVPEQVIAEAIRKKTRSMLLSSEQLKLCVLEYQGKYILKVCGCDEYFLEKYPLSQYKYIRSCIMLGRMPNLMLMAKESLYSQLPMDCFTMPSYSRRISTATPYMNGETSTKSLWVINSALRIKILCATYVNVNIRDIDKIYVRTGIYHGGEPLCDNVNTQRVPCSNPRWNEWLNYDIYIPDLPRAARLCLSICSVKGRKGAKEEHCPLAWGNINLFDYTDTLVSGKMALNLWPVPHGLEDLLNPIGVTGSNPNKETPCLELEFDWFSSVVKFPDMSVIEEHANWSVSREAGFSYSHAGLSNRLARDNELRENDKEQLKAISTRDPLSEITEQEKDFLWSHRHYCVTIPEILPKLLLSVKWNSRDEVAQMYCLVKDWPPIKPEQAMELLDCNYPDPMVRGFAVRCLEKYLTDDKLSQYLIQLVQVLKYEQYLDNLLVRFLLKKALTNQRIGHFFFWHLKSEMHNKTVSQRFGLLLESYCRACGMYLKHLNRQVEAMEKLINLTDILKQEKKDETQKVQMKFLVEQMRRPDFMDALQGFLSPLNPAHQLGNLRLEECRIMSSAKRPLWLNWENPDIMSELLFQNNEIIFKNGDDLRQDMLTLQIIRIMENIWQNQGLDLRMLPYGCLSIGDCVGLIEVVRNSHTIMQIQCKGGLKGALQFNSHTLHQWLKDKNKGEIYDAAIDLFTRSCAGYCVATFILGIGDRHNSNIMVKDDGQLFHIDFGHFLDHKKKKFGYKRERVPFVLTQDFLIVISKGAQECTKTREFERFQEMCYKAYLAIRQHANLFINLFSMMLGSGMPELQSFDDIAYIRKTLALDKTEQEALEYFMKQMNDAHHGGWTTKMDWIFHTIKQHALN
Chain of p110α/p85α (P27986 whole entry partner): as the sequence (P27986 whole entry partner) above

[1] = in vitro, read-out: PI3K γ IC50
[2] = in vitro, read-out: PI3K δ IC50
[3] = in vitro, read-out: PI3K α IC50
[4] = in vitro, read-out: PI3K β IC50

Chain of p110β/p85α (P42338 whole entry): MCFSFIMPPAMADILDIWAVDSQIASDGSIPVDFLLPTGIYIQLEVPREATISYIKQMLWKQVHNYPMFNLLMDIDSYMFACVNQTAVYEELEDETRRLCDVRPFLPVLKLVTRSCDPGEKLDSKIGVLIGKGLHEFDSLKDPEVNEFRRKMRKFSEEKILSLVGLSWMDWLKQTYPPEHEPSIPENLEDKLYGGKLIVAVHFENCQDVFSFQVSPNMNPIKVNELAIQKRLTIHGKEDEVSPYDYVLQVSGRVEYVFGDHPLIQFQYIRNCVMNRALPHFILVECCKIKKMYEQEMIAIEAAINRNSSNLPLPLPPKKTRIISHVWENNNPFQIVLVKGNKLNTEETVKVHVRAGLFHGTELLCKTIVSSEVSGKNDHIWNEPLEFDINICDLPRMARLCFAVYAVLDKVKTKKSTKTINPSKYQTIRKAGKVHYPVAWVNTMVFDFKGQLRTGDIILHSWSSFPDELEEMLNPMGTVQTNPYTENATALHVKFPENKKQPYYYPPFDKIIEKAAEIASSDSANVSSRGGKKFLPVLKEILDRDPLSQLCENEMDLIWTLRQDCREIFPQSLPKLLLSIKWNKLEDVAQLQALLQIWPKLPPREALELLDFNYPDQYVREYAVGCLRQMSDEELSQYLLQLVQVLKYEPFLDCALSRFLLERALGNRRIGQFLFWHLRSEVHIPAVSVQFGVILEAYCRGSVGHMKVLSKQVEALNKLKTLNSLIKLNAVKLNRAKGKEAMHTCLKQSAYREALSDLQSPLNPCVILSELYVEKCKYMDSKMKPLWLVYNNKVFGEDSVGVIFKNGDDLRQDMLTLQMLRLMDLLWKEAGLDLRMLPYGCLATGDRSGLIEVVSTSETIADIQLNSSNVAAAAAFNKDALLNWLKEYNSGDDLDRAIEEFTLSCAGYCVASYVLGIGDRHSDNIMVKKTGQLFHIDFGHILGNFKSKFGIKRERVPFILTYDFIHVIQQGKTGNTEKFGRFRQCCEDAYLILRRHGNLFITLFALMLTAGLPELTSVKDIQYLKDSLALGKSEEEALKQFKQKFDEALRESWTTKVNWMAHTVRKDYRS
Chain of p110β/p85α (P27986 whole entry partner): as the sequence (P27986 whole entry partner) above
Chain of p110γ (P48736 whole entry): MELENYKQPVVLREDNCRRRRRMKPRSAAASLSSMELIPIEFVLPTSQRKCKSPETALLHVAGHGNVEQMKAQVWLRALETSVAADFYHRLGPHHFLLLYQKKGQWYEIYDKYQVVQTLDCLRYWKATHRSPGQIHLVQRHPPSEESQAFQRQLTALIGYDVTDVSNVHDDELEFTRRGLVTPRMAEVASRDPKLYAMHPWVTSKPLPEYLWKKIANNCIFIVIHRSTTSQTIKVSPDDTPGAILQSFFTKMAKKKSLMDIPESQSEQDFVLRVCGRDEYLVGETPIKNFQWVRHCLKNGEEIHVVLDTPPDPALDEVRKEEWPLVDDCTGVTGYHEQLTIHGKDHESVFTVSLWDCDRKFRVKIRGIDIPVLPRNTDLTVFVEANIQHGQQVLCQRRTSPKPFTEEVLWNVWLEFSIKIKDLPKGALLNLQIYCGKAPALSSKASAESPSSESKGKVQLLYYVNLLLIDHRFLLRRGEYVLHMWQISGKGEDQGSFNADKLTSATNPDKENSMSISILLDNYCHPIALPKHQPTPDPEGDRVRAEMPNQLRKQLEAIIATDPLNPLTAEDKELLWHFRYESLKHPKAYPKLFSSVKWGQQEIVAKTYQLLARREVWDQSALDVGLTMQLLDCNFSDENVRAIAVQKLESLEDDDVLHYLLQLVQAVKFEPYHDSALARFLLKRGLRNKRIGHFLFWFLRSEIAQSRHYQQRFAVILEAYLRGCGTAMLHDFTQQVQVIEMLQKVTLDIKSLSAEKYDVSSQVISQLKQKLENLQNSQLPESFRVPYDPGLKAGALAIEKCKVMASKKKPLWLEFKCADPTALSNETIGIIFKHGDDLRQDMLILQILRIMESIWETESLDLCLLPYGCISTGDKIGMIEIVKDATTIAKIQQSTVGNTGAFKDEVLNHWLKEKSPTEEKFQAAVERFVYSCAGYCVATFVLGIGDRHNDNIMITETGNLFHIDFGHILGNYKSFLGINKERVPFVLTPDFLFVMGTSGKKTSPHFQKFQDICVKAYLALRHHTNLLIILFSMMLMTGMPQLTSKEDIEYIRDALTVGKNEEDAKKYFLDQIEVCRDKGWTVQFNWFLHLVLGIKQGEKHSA

SMILES	IC50 (p110δ/p85α; [2])	IC50 (p110β/p85α; [4])	IC50 (p110γ; read-out: PI3K γ In Vitro IC50)	IC50 (p110δ/p85α; read-out: PI3K δ In Vitro IC50)	IC50 (p110α/p85α; read-out: PI3K α In Vitro IC50)	further results
Nc1nsc2cc(-c3ccc4nccc(-c5ccncc5)c4c3)ccc12 [compound 13]						IC50 (p110β/p85α; read-out: PI3K β IC50): < 1 µM; IC50 (p110γ; read-out: PI3K γ IC50): < 1 µM; IC50 (p110δ/p85α; read-out: PI3K δ IC50): < 1 µM; IC50 (p110α/p85α; read-out: PI3K α IC50): < 0.1 µM
Nc1nc2cccc(-c3ccc4nccc(-c5ccncc5)c4c3)c2s1 [compound 17]						IC50 (p110β/p85α; read-out: PI3K β IC50): < 1 µM; IC50 (p110γ; read-out: PI3K γ IC50): < 0.1 µM; IC50 (p110δ/p85α; read-out: PI3K δ IC50): < 1 µM; IC50 (p110α/p85α; read-out: PI3K α IC50): < 0.1 µM
Nc1nc2cc(-c3ccc4nccc(-c5cn[nH]c5)c4c3)ccc2o1 [compound 20]						IC50 (p110β/p85α; read-out: PI3K β IC50): < 0.1 µM; IC50 (p110δ/p85α; read-out: PI3K δ IC50): < 0.1 µM; IC50 (p110α/p85α; read-out: PI3K α IC50): < 0.1 µM
Nc1nc2cc(-c3ccc4ncc(N5CC(C(=O)N6CCOCC6)C5)nc4c3)ccc2o1 [compound 252]	< 10 µM	< 10 µM				IC50 (p110γ; [1]): < 10 µM
CN1CCN(C(=O)C2CN(c3cnc4ccc(-c5ccc6oc(N)nc6c5)cc4n3)C2)CC1 [compound 253]	< 10 µM	< 10 µM				IC50 (p110γ; [1]): < 10 µM
Nc1nc2cc(-c3ccc4ncn(CCCN5CCCC5)c(=O)c4c3)ccc2o1 [compound 271]	< 10 µM	< 10 µM				IC50 (p110α/p85α; [3]): < 1 µM
CC1(C)CN(c2cnc3ccc(-c4ccc5oc(N)nc5c4)cc3n2)CCN1 [compound 336]	< 10 µM	< 1 µM				IC50 (p110α/p85α; [3]): < 1 µM
Cc1c(-c2ccc3oc(N)nc3c2)ccc2ncc(N3CCN[C@@H](C)C3)nc12 [compound 374]	< 10 µM	< 0.1 µM				IC50 (p110α/p85α; [3]): < 1 µM
COc1ncc(-c2ccc3ncc(C(=O)N4CCOCC4)n3c2)cc1NS(=O)(=O)c1ccccc1 [compound 420]			< 1 µM	< 1 µM	< 0.1 µM	
O=C(c1cnc2ccc(-c3cccc(NS(=O)(=O)c4ccc(F)cc4F)c3)cn12)N1CCOCC1 [compound 454]			< 10 µM	< 10 µM	< 10 µM	
Nc1nc2cc(-c3ccc4ncc(C(=O)N5CC[C@@H](F)C5)n4c3)ccc2o1 [compound 475]			< 0.1 µM	< 10 µM	< 0.1 µM	
Nc1nc2cc(-c3ccc4ncc(C(=O)N5CC[C@@H](n6cccn6)C5)n4c3)ccc2o1 [compound 477]			< 1 µM	< 10 µM	< 0.1 µM	
Nc1nc2cc(-c3ccc4ncc(C(=O)N5CC(n6cccn6)C5)n4c3)ccc2o1 [compound 479]			< 1 µM	< 10 µM	< 0.1 µM	
O=C(c1cnc2ccc(-c3cnc4[nH]ncc4c3)cn12)N1CCOCC1 [compound 492]			< 10 µM	< 10 µM		IC50 (p110β/p85α; read-out: PI3K β In Vitro IC50): < 10 µM
Nc1nc2cc(-c3ccc4ncc(C(=O)N5CCC(N6CCC(F)(F)C6)C5)n4c3)ccc2o1 (centres unmarked) [compound 500]			< 10 µM	< 10 µM	< 1 µM	
Nc1nc2cc(-c3ccc4ncc(C(=O)N5CC(N6CCC(F)(F)C6)C5)n4c3)ccc2o1 [compound 502]			< 1 µM	< 10 µM	< 0.1 µM	
COc1ncc(-c2ccc3ncc(C(=O)N4CCOCC4)n3c2)c2cn[nH]c12 [compound 517]			< 10 µM	< 10 µM	< 1 µM	

Further lines, with some results ahead:

IC50 (p110δ/p85α; [2])	IC50 (p110β/p85α; [4])	IC50 (p110γ; read-out: PI3K γ In Vitro IC50)	IC50 (p110δ/p85α; read-out: PI3K δ In Vitro IC50)	IC50 (p110α/p85α; read-out: PI3K α In Vitro IC50)	SMILES	further results
< 10 µM					Nc1nc2cc(-c3ccc4ncc(N5CCN(C(=O)C6(N)CC6)CC5)nc4c3)ccc2o1 [compound 226]	IC50 (p110γ; [1]): < 10 µM; IC50 (p110α/p85α; [3]): < 1 µM
< 1 µM	< 10 µM				Nc1nc2cc(-c3ccc4ncc(C(=O)NCCN5CCCC5)n4c3)ccc2o1 [compound 296]	IC50 (p110α/p85α; [3]): < 1 µM
< 10 µM	< 10 µM				C[C@H]1CN(C2CN(c3cnc4ccc(-c5ccc6oc(N)nc6c5)cc4n3)C2)CCN1 [compound 350]	IC50 (p110α/p85α; [3]): < 0.1 µM
		< 1 µM	< 10 µM	< 1 µM	O=C(c1cnc2ccc(-c3cncc(NS(=O)(=O)c4ccccc4)c3)cn12)N1CCOCC1 [compound 424]	
		< 0.1 µM	< 1 µM	< 0.1 µM	O=C(c1cnc2ccc(-c3cncc(NS(=O)(=O)c4ccc(F)cc4F)c3)cn12)N1CCOCC1 [compound 425]	
		< 1 µM	< 10 µM	< 0.1 µM	C[C@H]1CCCN1C(=O)c1cnc2ccc(-c3ccc4oc(N)nc4c3)cn12 [compound 482]	
